Earlier results on 2 compounds are cited in patent US11878081B1, “Pharmaceutical formulations of tafamidis” (TaP Pharmaceuticals, AG, priority 2022, dated 2024).

Like-named read-outs stand apart in the source and are kept apart here.

For data set [1] the following is noted: 20 mg in 3.0 mL, equilibration 1 h, UHPLC.
The conditions of data set [2]: capsule formulation of Table B/C, 61 mg, pH 6.8 PBS 900 ml, paddle 50 RPM, 37° C.
For data set [3] the following is noted: as stated by the '116 publication.

Consider `O=C(O)c1ccc2nc(-c3cc(Cl)cc(Cl)c3)oc2c1` [‘441 patent's tafamidis crystal form 1, 2-(3,5-dichlorophenyl)-1,3-benzoxazole-6-carboxylic acid], for which the “concentration of tafamidis in saturated solution (solubility)” value in data set [1] (FaSSIF) is 9.0 µg/mL; in data set [1] (FeSSIF) it was 0.6 µg/mL; in data set [1] (SGF), 1.5 µg/mL. The Cumulative drug release in data set [2] (0 min) was 0.0%; in data set [2] (5 min), 14.0%; in data set [2] (10 min), 27.3%; in data set [2] (15 min) it was 29.1%; in data set [2] (20 min) it was 28.1%; in data set [2] (30 min), 27.6%. Besides, the results for the Cumulative drug release in data set [2] (45 min) and in data set [2] (60 min) were 26.8% and 21.8%, respectively. Moreover, the solubility entry in data set [3] is “low solubility”. For the same compound, the stability entry in data set [3] (listed as tafamidis form 1) was “more stable than forms 2, 4, and 6”.

Consider `O=C(O)c1ccc2nc(-c3cc(Cl)cc(Cl)c3)oc2c1` [form 4, 2-(3,5-dichlorophenyl)-1,3-benzoxazole-6-carboxylic acid], for which the stability entry in data set [3] was “unstable”.
